Entries after “also recorded” stand apart in the source; their conditions may differ.
Tests used:
[1] = system: NZM9 (BRAF and NRAS wildtype) melanoma cells; test: FACS uptake of BODIPY FL conjugates, 200 nM, 5 min (Example 2); assay type: cell-based, human
Protocol: (§1) FIG. 2. Conjugate compounds coupled to BODIPY FL were tested for uptake using 200 nM each conjugate and 5 minute incubation with melanoma cell line NZM11 (BRAF V600E mutant metastatic melanoma), melanoma cell line NZM40 (NRAS Q16H mutant metastatic melanoma) and melanoma cell line NZM9 (BRAF and NRAS wildtype metastatic melanoma). Mean fluorescent intensities (MFI). 2,000 cells (NZM11), 1,000 cells (NZM40) and 500-1,000 cells (NZM9). Cells were sorted by FACS. Bars represent mean±SD. Results were from a single experiment done in triplicate.
NZM9 is an adherent cell line which was originally derived from a metastatic melanoma from a patient (from axillary lymph node, source: Cellosaurus database). These cancer cells are BRAF and NRAS wild type. NZM9 present a mutation on gene TP53, which is the most frequent in human cancers, on 179C/T. This gene encodes the synthesis of protein p53 which acts as a tumour suppressor. See Tran et al., 2021; Levine and Owen, 2009; Duffy and Crown, 2021.
(§2) For screening, NZM11, NZM40 and NZM9 cells were suspended at […] dispensed into 96 well plates and left to settle for 48 hours. Then, 10 μL of 10 mM stock solutions in DMSO for the conjugates were diluted with HBSS to afford 400 nM solution. Next, 400 nM compounds and DMSO solutions were diluted 1:1 with MEMα media to afford 200 nM solutions. After 48 hours the media was removed from the 96 well plates and 200 μL of 200 nM conjugates solutions dispensed to each well (in triplicate) and incubated for 5 minutes at 37 °C. After 5 minutes, the media was removed and cells washed with PBS. Then, 100 μL of TrypLE trypsin (ThermoFisher Scientific) were added to each well and incubated for 5 minutes at 37 °C after which, 100 μL of MEMα media were added and samples were sorted through FACS biosort. The FACS results output were represented as the mean of the fluorescence intensities (in arbitrary units) measured for cells sorted in every sample.

[2] = system: NZM11 (BRAF V600E) melanoma cells; test: as above; assay type: cell-based, human
Protocol: as §1
Materials and methods: NZM11 is an adherent metastatic melanoma cell which was originally derived from a patient with a subcutaneous lesion on their mid back. This human metastatic melanoma is identified with code CBA-1398 from Cell Bank Australia. […] BRAF is a gene that makes a protein called B-Raf. The gene is involved in sending signals within cells that direct the cell's growth. Around 50% of melanomas bear activating BRAF mutations. In this family of mutations, V600E is the most common, which is a single mutation on codon 600. BRAF mutation is also most common in patients whose tumours arise on skin without chronic sun-induced damage. See Ascierto et al., 2012.
as §2, with “Then, 100 μL of TrypLE trypsin (ThermoFisher Scientific) were added to each well and incubated for 5 minutes at 37 °C after which, 100 μL of MEMα media were added and samples were sorted through FACS biosort.” left out

[3] = system: HEM (human epidermal melanocytes); test: FACS uptake of BODIPY FL conjugates, 50 nM, 5 min (Example 1); assay type: cell-based; conditions: HEM / normal melanocytes
Protocol: FIG. 1. Conjugate compounds coupled to BODIPY FL were tested for uptake using 50 nM each conjugate and 5 minute incubation with HEM (human epidermal melanocytes) and melanoma cell line NZM11 (BRAF V600E mutant metastatic melanoma). Mean fluorescent intensities (MFI). For these tests, n=300-500, mean±SD. Results were from a single experiment done in triplicate. Cells were sorted by FACS.
Materials and methods: NZM11 is an adherent metastatic melanoma cell derived from a patient with a subcutaneous lesion on their mid back. This human metastatic melanoma is identified with code CBA-1398 from Cell bank Australia. […] Cells of NZM11 diluted in MEMα media and cells of HEMnDP (primary melanocyte cell line) diluted in media 254 were left to settle in 96-wells microplate for 48 hours. 10 μL of 10 mM stock solutions in DMSO from 138 and pantothenic acid/pantothenic acid derivatives coupled to BODIPY were diluted with HBSS to afford 100 nM solution. Then, 100 nM compounds and DMSO solutions were diluted 1:1 with MEMα media for NZM11 and media 254 for HEMnDP to afford 50 nM solutions. After the 48 hour settle time, media was removed from the cells and 200 μL of 50 nM media solutions were poured to each well and incubated for 5 minutes at 37 °C. […] The FACS results output represented the mean of the fluorescence intensities (in arbitrary units) measured for cells sorted in every sample

[4] = system: HT29 (colorectal cancer cell line); test: FACS uptake of BODIPY FL conjugates (Example 4); assay type: cell-based, human; conditions: 200 nM, 5 min
Protocol: FIG. 4A: Conjugate compounds coupled to BODIPY FL were tested for uptake using 200 nM each conjugate and 5 minute incubation with colorectal cancer cell line HT29. Mean fluorescent intensities (MFI). 1,000 cells were sorted by FACS.
Materials and methods: The HT-29 line was originally isolated from a primary tumour in 1964 from a person. This cell line is positive for expression of N-ras and overexpression of p53 antigen. The human colon adenocarcinoma cell line HT29, is not only used to study the biology of human colon cancers, but it is receiving special interest in studies focused on food digestion and bioavailability due to the ability to express characteristics of mature intestinal cells. The application of this cell line to transport studies of drugs and food compounds is illustrated, especially when the effect of the mucus layer is considered or used as co-culture in combination with Caco-2 cells. These cells have shown a high rate of glucose consumption and therefore, they require high glucose concentration in the medium. Verhoeck et al., 2015.
For these experiments, HT-29 or MEF cells were diluted on αMEM media (supplemented with 10% FBS+1% penicillin-streptomycin) to give a 250 cells/μL suspension of which 200 μL were aliquoted into each well of a 96 well plate followed by incubation for 24 hours. Next, 2 μL of 100 μM stock solutions in DMSO from the conjugates coupled to BODIPY were diluted with 998 μL of αMEM media to give a 200 nM solution. After 24 hour incubation, media was removed and 200 μL of 138 and pantothenic acid/pantothenic acid derivatives coupled to BODIPY 200 nM solutions were added and cells were incubated for 5 minutes at 37 °C. After 5 minutes, the compounds and DMSO solutions were removed and cells were washed with PBS. Then, 100 μL of TrypLE trypsin were added to each well and incubated for 5 minutes at 37 °C. After this time, 100 μL of DMEM media were added to the wells and samples were sorted through FACS biosort. The studies were completed in duplicated wells.

| Structure (SMILES) | higher fluorescence intensities compared to enantiomer 126 [1] | uptake (fluorescence intensities) [1] | higher fluorescence intensities compared to enantiomer 126 [2] | uptake (fluorescence intensities) [2] | uptake (fluorescence intensities) [3] | uptake (fluorescent intensities) [4] |
| --- | --- | --- | --- | --- | --- | --- |
| CC1=CC(C)=[N+]2C1=Cc1ccc(CCCn3cc(CCNC(=O)/C=C/NC(=O)[C@H](O)C(C)(C)CO)nn3)n1[B-]2(F)F [Compound 124] | 7 times | highest intensities; also recorded: best targeting activity | 15 fold | highest intensities; also recorded: best targeting activity | no significant uptake |  |
| CC1=CC(C)=[N+]2C1=Cc1ccc(CCCn3cc(CCNC(=O)/C=C/NC(=O)[C@@H]4OC(C)(C)OCC4(C)C)nn3)n1[B-]2(F)F [Compound 125, (R,E)-N-((((3-[4,4-difluoro-5,7-dimethyl-4-bora-3a,4a-diaza-s-indacene-3-yl]propyl)-1H-1,2,3-triazol-4-yl)eth-ylamino)-3-oxoprop-1-enyl)-2,2,5,5-tetramethyl-1,3-dioxane-4-carboxamide] |  | selective uptake; also recorded: significant uptake |  | selective uptake; also recorded: significant uptake |  | moderately higher fluorescent intensities |
| CC1=CC(C)=[N+]2C1=Cc1ccc(CCCn3cc(CCNC(=O)/C=C\NC(=O)[C@H]4OC(C)(C)OCC4(C)C)nn3)n1[B-]2(F)F [Compound 131, (Z)—N-((((3-[4,4-Difluoro-5,7-dimethyl-4-bora-3a,4a-diaza-s-indacene-3-yl]propyl)-1H-1,2,3-triazol-4-yl)ethylamino)-3-oxoprop-1-enyl)-2,2,5,5-tetramethyl-1,3-dioxane-4-carboxamide] |  |  |  |  | significant uptake | higher uptakes than their diol counterparts |
